Measurements taken from patent publication US7211587B2, “Quinoline derivatives and quinazoline derivatives having azolyl group” (Kirin Beer Kabushiki Kaisha, priority 2001, dated 2007).
One block for each molecule: values may come before it.

Experiments:
human KDR = molecular target: T1, human KDR (Homo sapiens, UniProt P35968); assay: Inhibitory activity against KDR phosphorylation by ELISA (VEGF-stimulated NIH 3T3 cells expressing human KDR); assay type: cell-based; details: VEGF 100 ng/ml, compound 1 hr, read-out: IC50 (inhibition of KDR phosphorylation)
T1 construct: expressed in transfected cells; host or cells: NIH 3T3 cells (mouse fibroblasts) stably expressing human KDR
Procedure: The harvested cells were inoculated into wells of a collagen-type one-coat 96-well flat-bottom plate, each containing the same medium, in an amount of 1.5×10^4 per well, followed by cultivation at 37° C. overnight. The medium was then replaced by a DMEM medium containing 0.1% fetal calf serum. A solution of a test compound in dimethyl sulfoxide was added to each well, and the cultivation was continued at 37° C. for additional one hr. A human recombinant vascular endothelial growth factor (hereinafter abbreviated to “VEGF”) was added to a final concentration of 100 ng/ml, and the stimulation of cells was carried out at 37° C. for 2 min. The medium was removed, the cells were washed with phosphate buffered saline (pH 7.4), and 50 μl of a solubilization buffer (20 mM HEPES (pH 7.4), 150 mM NaCl, 0.2% Triton X-100, 10% glycerol, 5 mM sodium orthovanadylate, 5 mM disodium ethylenediaminetetraacetate, and 2 mM Na4P2O7) was then added thereto. The mixture was shaken at 4° C. for 2 hr to prepare a cell extract.
Separately, phosphate buffered saline (50 μl, pH 7.4) containing 5 μg/ml of an anti-phospho-tyrosine antibody (PY20; purchased from Transduction Laboratories) was added to a microplate for ELISA (Maxisorp; purchased from NUNC), followed by standing at 4° C. overnight to form a solid phase on the wells. After washing of the plate, 300 μl of a blocking solution was added, followed by standing at room temperature for 2 hr to perform blocking. After washing, the whole quantity of the cell extract was transferred to the wells, and the plate was then allowed to stand at 4° C. overnight. After washing, an anti-KDR antibody (purchased from Santa Cruz) was allowed to react at room temperature for one hr, and, after washing, a peroxidase-labeled anti-rabbit Ig antibody (purchased from Amersham) was allowed to react at room temperature for one hr. After washing, a chromophoric substrate for peroxidase (purchased from Sumitomo Bakelite Co., Ltd.) was added thereto to initiate a reaction. After a suitable level of color development, a reaction termination solution was added to stop the reaction, and the absorbance at 450 nm was measured with a microplate reader. The KDR phosphorylation activity for each well was determined by presuming the absorbance with the addition of VEGF and without the addition of the medicament to be 100% KDR phosphorylation activity and the absorbance without the addition of the medicament and VEGF to be 0% KDR phosphorylation activity.

[1] = tested on: Human pulmonary carcinoma cells (LC-6); assay: Antitumor activity against human pulmonary carcinoma cells (LC-6) using nude rats; assay type: in vivo; details: LC-6 in nude rats
Procedure: (§1) Human pulmonary carcinoma cells (LC-6) (obtained from Central Laboratories for Experimental Animals) were transplanted into nude rats. When the tumor volume became about 700 mm^3, the rats were grouped so that each group consisted of four rats and the average tumor volume was even among the groups. A test compound was orally administered at doses of 0.2, 0.5, 1.0, and 5.0 mg/kg to the test groups every day once a day for 14 days, while only a vehicle was administered to a control group in the manner as in the test groups. The tumor growth inhibition rate (TGIR) was calculated as follows: The tumor growth inhibition rate (TGIR)=(1−TX/CX)×100 wherein CX represents the volume of tumor at day X for the control group when the tumor volume at the first day of the administration was presumed to be 1; and TX represents the tumor volume for test compound administration groups.

[2] = tested on: Human pulmonary carcinoma cells (LC-6); assay: Antitumor activity against human pulmonary carcinoma cells (LC-6) transplanted into nude mice; assay type: in vivo; details: Mus musculus, 216 h; LC-6 in nude mice, oral 20 mg/kg once a day for 9 days; read-out: TGIR (tumor growth inhibition rate)
Procedure: as §1, with “mice.” for “rats.”, “100” for “700”, “mice” for “rats”, “a dose” for “doses”, “20” for “0.2, 0.5, 1.0, and 5.0”, “9” for “14”

[3] = tested on: Human colon carcinoma cells (LS174T); assay: Antitumor activity against human colon carcinoma cells (LS174T) using nude mice; assay type: in vivo; details: LS174T (printed LS17) in nude mice, oral 5 mg/kg once a day for 9 days
Procedure: (§2) Human colon carcinoma cells (LS174T) (obtained from American Type Culture Collection) or human pulmonary carcinoma cells (A549) (obtained from RIKEN Cell Bank) were transplanted into nude mice. When the tumor volume became about 150 mm^3, the mice were grouped so that each group consisted of four mice and the average tumor volume was even among the groups. A test compound was orally administered at doses of 5 and 20 mg/kg to the test groups every day once a day for 9 days, while only a vehicle was administered to a control group in the manner as in the test groups. The tumor growth inhibition rate (TGIR) was calculated as follows: The tumor growth inhibition rate (TGIR)=(1−TX/CX)×100 wherein CX represents the volume of tumor at day X for the control group when the tumor volume at the first day of the administration was presumed to be 1; and TX represents the tumor volume for test compound administration groups.

[4] = tested on: human pulmonary carcinoma cells (A549); assay: Antitumor activity against human pulmonary carcinoma cells (A549) using nude mice; assay type: in vivo; details: A549 in nude mice, oral 20 mg/kg once a day for 9 days
Procedure: as §2

[5] = oral 5 mg/kg once a day for 14 days

T1 sequence (P35968 20-1356): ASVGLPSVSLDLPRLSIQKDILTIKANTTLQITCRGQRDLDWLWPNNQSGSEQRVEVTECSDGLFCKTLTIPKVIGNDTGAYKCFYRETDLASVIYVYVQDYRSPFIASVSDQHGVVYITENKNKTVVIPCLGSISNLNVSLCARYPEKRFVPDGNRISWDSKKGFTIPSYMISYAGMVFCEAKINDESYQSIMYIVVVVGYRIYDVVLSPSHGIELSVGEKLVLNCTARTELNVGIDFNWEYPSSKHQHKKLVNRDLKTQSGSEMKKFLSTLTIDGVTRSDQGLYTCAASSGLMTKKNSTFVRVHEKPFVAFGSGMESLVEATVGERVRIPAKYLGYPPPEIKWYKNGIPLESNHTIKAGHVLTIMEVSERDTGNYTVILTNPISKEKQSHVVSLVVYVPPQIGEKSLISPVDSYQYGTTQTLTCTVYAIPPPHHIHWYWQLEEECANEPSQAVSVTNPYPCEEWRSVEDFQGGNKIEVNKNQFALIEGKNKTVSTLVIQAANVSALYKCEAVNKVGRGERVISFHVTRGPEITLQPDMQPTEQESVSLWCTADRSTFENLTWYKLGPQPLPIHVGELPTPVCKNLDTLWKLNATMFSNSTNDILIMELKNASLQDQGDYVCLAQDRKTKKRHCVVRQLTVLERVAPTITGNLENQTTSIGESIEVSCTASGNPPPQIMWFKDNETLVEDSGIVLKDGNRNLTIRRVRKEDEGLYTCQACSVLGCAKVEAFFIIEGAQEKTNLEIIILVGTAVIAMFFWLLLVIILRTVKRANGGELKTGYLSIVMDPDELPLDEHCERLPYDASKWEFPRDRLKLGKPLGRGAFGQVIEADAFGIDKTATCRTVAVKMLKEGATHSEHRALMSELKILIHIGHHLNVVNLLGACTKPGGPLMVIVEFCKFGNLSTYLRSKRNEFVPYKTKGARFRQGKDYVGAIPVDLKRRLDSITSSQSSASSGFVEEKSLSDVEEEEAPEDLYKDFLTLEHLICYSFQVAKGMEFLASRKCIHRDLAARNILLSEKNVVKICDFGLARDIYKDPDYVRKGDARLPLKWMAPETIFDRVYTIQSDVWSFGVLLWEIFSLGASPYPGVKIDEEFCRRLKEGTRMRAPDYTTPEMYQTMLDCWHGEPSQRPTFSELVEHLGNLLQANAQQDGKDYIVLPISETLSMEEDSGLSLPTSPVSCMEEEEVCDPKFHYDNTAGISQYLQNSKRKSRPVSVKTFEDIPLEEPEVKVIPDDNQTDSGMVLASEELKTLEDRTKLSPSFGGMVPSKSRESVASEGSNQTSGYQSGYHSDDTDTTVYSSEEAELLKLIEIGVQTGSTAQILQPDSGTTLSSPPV

SMILES: COc1cc2nccc(Oc3ccc(NC(=O)Nc4nnc(C)s4)c(F)c3)c2cc1OC [Ex. 58, N-{4-[(6,7-Dimethoxy-4-quinolyl)oxy]-2-fluorophenyl}-N′-(5-methyl-1,3,4-thiadiazol-2-yl)urea]
IC50 (human KDR): 36 nM
inhibition in vivo at 20 mg/kg [2]: 13.4%

SMILES: COc1cc2nccc(Oc3cc(C)c(NC(=O)Nc4nnc(C5CC5)s4)cc3C)c2cc1OC [Ex. 69, N-(5-Cyclopropyl-1,3,4-thiadiazol-2-yl)-N′-{4-[(6,7-dimethoxy-4-quinolyl)oxy]-2,5-dimethylphenyl}-urea]
IC50 (human KDR): 4.1 nM
inhibition in vivo at 20 mg/kg [2]: 23.3%

SMILES: COc1cc2nccc(Oc3ccc(NC(=O)Nc4cc(C)on4)c(Cl)c3)c2cc1OC [Ex. 4, N-{2-Chloro-4-[(6,7-dimethoxy-4-quinolyl)oxy]phenyl}-N′-(5-methyl-3-isoxazolyl)urea]
inhibition in vivo at 20 mg/kg [2]: 55.4%
TGIR (tumor growth inhibition rate) ([1]; oral 0.2 mg/kg once a day for 14 days): 62%
TGIR (tumor growth inhibition rate) ([1]; oral 0.5 mg/kg once a day for 14 days): 80%
TGIR (tumor growth inhibition rate) ([1]; oral 1 mg/kg once a day for 14 days): 88%
TGIR (tumor growth inhibition rate) [3]: 65%
TGIR (tumor growth inhibition rate) [4]: 65%

The next lines start with results.

IC50 (human KDR): 0.3 nM
SMILES: COc1cc2nccc(Oc3ccc(NC(=O)Nc4nccs4)c(F)c3)c2cc1OC.Cl [Ex. 27, N-{4-[(6,7-Dimethoxy-4-quinolyl)oxy]-2-fluorophenyl}-N′-(1,3-thiazol-2-yl)urea hydrochloride]
TGIR (tumor growth inhibition rate) [1, 5]: 82%

IC50 (human KDR): 1.2 nM
SMILES: COc1cc2nccc(Oc3ccc(NC(=O)Nc4nnc(C(F)(F)F)s4)c(C)c3C)c2cc1OC [Ex. 53, N-{4-[(6,7-Dimethoxy-4-quinolyl)oxy]-2,3-dimethylphenyl}-N′-[5-(trifluoromethyl)-1,3,4-thiadiazol-2-yl]urea]
inhibition in vivo at 20 mg/kg [2]: 14.4%

IC50 (human KDR): < 1 nM
SMILES: COc1cc2nccc(Oc3ccc(NC(=O)Nc4nc(C)c(C)s4)c(F)c3)c2cc1OC [Ex. 23, N-{4-[(6,7-Dimethoxy-4-quinolyl)oxy]-2-fluorophenyl}-N′-(4,5-dimethyl-1,3-thiazol-2-yl)urea]
inhibition in vivo at 20 mg/kg [2]: 51.7%

IC50 (human KDR): < 1 nM
SMILES: COc1cc2ncnc(Oc3ccc(NC(=O)Nc4nccs4)c(Cl)c3)c2cc1OC [Ex. 38, N-{2-Chloro-4-[(6,7-dimethoxy-4-quinazolinyl)oxy]phenyl}-N′-(1,3-thiazol-2-yl)urea]
inhibition in vivo at 20 mg/kg [2]: 92%
TGIR (tumor growth inhibition rate) [1, 5]: 78%

IC50 (human KDR): 0.3 nM
SMILES: COc1cc2nccc(Oc3ccc(NC(=O)Nc4nc(C)cs4)c(F)c3)c2cc1OC.Cl [Ex. 28, N-{4-[(6,7-Dimethoxy-4-quinolyl)oxy]-2-fluorophenyl}-N′-(4-methyl-1,3-thiazol-2-yl)urea hydrochloride]
inhibition in vivo at 20 mg/kg [2]: 66.3%
TGIR (tumor growth inhibition rate) [1, 5]: 59%
